Source: PMC6222509, “Dibasic Derivatives of Phenylcarbamic Acid against Mycobacterial Strains: Old Drugs and New Tricks?” (Molecules : A Journal of Synthetic Chemistry and Natural …, 2018)
Converted amounts (≈) assume the structure as drawn. Read-outs that look alike come from different tables or passages of the source.

How the values were obtained:
[1] = system: M. tuberculosis H37Ra ATCC 25177 (MTa H37Ra); assay: in vitro antimycobacterial MIC, 96-well Middlebrook broth, alamarBlue; format: cell-based, Mycobacterium tuberculosis; details: 7-day cultivation, read-out: MIC MTa H37Ra 7-d
Description: In vitro susceptibitity of given mycobacteria to reference drugs isoniazid (INH), ethambutol (EMB), ofloxacin (OFLX) or ciprofloxacin (CPX) was tested as well (Table 6 and Table 7).
A value of a minimum inhibitory concentration (MIC) was the lowest concentration of a tested compound, (i) which inhibited growth of MTv H37Rv, MK 235/80, MK 6509/96 and MA 330/80, respectively; (ii) at which no visible growth of MTa H37Ra, MS, MK DSM as well as MM was observed.
The molecules 1a–p were also in vitro screened against an avirulent M. tuberculosis H37Ra ATCC 25177 (MTa H37Ra), M. kansasii DSM 44162 (MK DSM), M. smegmatis ATCC 700084 (MS) and M. marinum CAMP 5644 (MM), respectively, in the Department of Infectious Diseases and Microbiology (Faculty of Veterinary Medicine, University of Veterinary and Pharmaceutical Sciences in Brno, Czech Republic).
Determination of a minimum inhibitory concentration (MIC) against MTa H37Ra. The mycobacterium was grown on Middlebrook broth (MB; MiddleBrook Pharmaceuticals, Inc., Westlake, TX, USA), supplemented with Oleic-Albumin-Dextrose-Catalase (OADC) supplement (Difco, Lawrence, KS, USA) and salicylate-derived mycobactin J (2 μg/mL; Allied Monitor Inc., Fayette, MO, USA), an iron-binding siderophore.
At log phase growth, a culture sample (10 mL) was centrifuged at 15,000 rpm/20 min using a bench top centrifuge MPW-65R (MPW Med Instruments, Warsaw, Poland). Following removal of the supernatant, a pellet was washed in fresh liquid Middlebrook 7H9GC broth (MiddleBrook Pharmaceuticals, Inc.) and re-suspended in a fresh OADC-supplemented MB (10 mL).
Turbidity was adjusted to match the McFarland standard No. 1 [87] containing approximately 3 × 10^8 Colony Forming Units (CFU) with MB broth. Further 1:20 dilution of the culture was performed in MB broth.
Susceptibility of MTa H37Ra was investigated in a 96-well plate format. In the experiments, sterile deionized water (300 µL) was added to all outer-perimeter wells of the plates to minimize evaporation of the medium in test wells during incubation. Each evaluated compound (100 µL) was incubated with MTa H37Ra (100 µL). Dilutions of each compound were prepared in triplicate and final concentrations varied from 1000 μg/mL to 8 μg/mL. All tested molecules were dissolved in DMSO (Sigma-Aldrich, Irvine, UK), and subsequent dilutions were made in supplemented MB broth. The plates were sealed with parafilm and incubated at 37 °C for 7 days.
Following incubation, 10% addition a water-soluble dye, the alamarBlue reagent (AbD Serotec, Kidlington, UK) was mixed into each well. This resaurin-based reagent served as an oxidation-reduction indicator of metabolic function and cellular health in cell viability bioassays.
Absorbance readings at 570 nm and 600 nm were taken, initially for background subtraction and after 24h re-incubation. The subtraction is necessary for strongly colored compounds, where the color may interfere with the interpretation of any color change. For non-interfering compounds, a blue color in a well was interpreted as absence of growth and pink color was scored as growth.
The minimum inhibitory concentration (MIC) was defined as the lowest concentration of a compound, at which no visible bacterial growth was observed. In other words, the MIC was the lowest concentration that prevented visual color change from blue to pink.

white mice = details: subcutaneous application; cited from earlier work
[2] = system: M. avium CNCTC My 330/80 (identical with ATCC 25291; MA 330/80); assay: in vitro antimycobacterial MIC, dilution micromethod in Šula's semisynthetic medium; format: cell-based, Mycobacterium avium
[3] = system: M. kansasii CNCTC My 235/80 (identical with ATCC 12478; MK 235/80); assay: as above; format: cell-based, Mycobacterium kansasii
[4] = surface tension, drop count method, Traube stalagmometer; format: physicochemical; details: aqueous solution c = 2.0 × 10^−3 M, 21 °C; water γ = 0.07259 N/m
Description: Surface tension (relative surface activity; γ) of aqueous solutions of the compounds 1a–p (c = 2.0 × 10^−3 M) was determined by a drop count technique using a Traube stalagmometer. All evaluated substances were able to decrease surface tension of water (γ = 0.07259 N/m) at 21 °C.
Surface tension (relative surface activity; γ) of the derivatives 1a–p was determined by a drop count method using a glassy Traube stalagmometer (Kavalier Glass, Prague, Czech Republic). Number of drops of compounds’ and reference solutions were counted between upper and lower marks of the stalagmometer. Aqueous solutions of the molecules 1a–p were prepared with distilled, deionized water (c = 2.0 × 10^−3 M). […] The drops were allowed to form at constant temperature 21 °C. The experimental procedure was described in a paper. Current measurements were done in six replicates and average γ values (in N/m units) were reported (Table 1).

[5] = system: Mycobacterium tuberculosis CNCTC My 331/88 (identical with H37Rv and ATCC 2794; MTv H37Rv); assay: in vitro antimycobacterial MIC, dilution micromethod in Šula's semisynthetic medium; format: cell-based; details: Mycobacterium tuberculosis
[6] = system: M. smegmatis ATCC 700084 (MS); assay: in vitro antimycobacterial MIC, broth dilution micromethod in Middlebrook 7H9; format: cell-based, Mycobacterium smegmatis; details: Mycolicibacterium smegmatis, ATCC700084, 72 h
guinea pig = system: guinea pig; design: method as in PMID 8402965; details: intradermal, 0.02 M procaine as standard; cited from earlier work
rabbit cornea = system: rabbit cornea; design: method as in PMID 8402965; details: 0.01 M cocaine as standard; cited from earlier work
[7] = Mycobacterium tuberculosis, 168 h
[8] = Mycobacterium avium, ATCC25291, 336 h, 14-day cultivation, read-out: MIC MA 330/80 14-d
[9] = Mycobacterium avium, ATCC25291, 504 h, 21-day cultivation, read-out: MIC MA 330/80 21-d
[10] = Mycobacterium kansasii, ATCC12478, 168 h, 7-day cultivation, read-out: MIC MK 235/80 7-d
[11] = Mycobacterium kansasii, ATCC12478, 336 h, 14-day cultivation, read-out: MIC MK 235/80 14-d
[12] = Mycobacterium kansasii, ATCC12478, 504 h, 21-day cultivation, read-out: MIC MK 235/80 21-d
[13] = 336 h, 14-day cultivation, read-out: MIC MTv H37Rv 14-d
[14] = 504 h, 21-day cultivation, read-out: MIC MTv H37Rv 21-d
[15] = 3-day cultivation, 37 °C, read-out: MIC MS 3-d
[16] = Mycobacterium avium, ATCC25291, 336 h, read-out: MIC MA 330/80 14-d
[17] = Mycobacterium avium, ATCC25291, 504 h, read-out: MIC MA 330/80 21-d
[18] = Mycobacterium kansasii, ATCC12478, 168 h, read-out: MIC MK 235/80 7-d
[19] = Mycobacterium kansasii, ATCC12478, 336 h, read-out: MIC MK 235/80 14-d
[20] = Mycobacterium kansasii, ATCC12478, 504 h, read-out: MIC MK 235/80 21-d
[21] = read-out: MIC MS 3-d, 3-day cultivation, 37 °C
[22] = Mycobacterium kansasii, ATCC12478, read-out: MIC MK 235/80

## CCCCCCOc1ccccc1NC(=O)OC(CN(CCC)CCC)CN1CCCC1 (centres unmarked) [1c]
[1]; [7]
  MIC: 25 µM (≈ 11.2 µg/mL)
White mice
  LD50: 600 mg/kg
[2]; [8]
  MIC: 32 µM (≈ 14.3 µg/mL)
[2]; [9]
  MIC: 62.5 µM (≈ 28 µg/mL)
[3]; [10]
  MIC: 32 µM (≈ 14.3 µg/mL)
[3]; [11]
  MIC: 32 µM (≈ 14.3 µg/mL)
[3]; [12]
  MIC: 32 µM (≈ 14.3 µg/mL)
[4]
  surface tension γ (relative surface activity): 0.06222 N/m
[5]; [13]
  MIC: 16 µM (≈ 7.16 µg/mL)
[5]; [14]
  MIC: 16 µM (≈ 7.16 µg/mL)
[6]; [15]
  MIC: 51 µM (≈ 22.8 µg/mL)

## CCCCCOc1cccc(NC(=O)OC(CN(CCC)CCC)CN2CCCC2)c1.Cl.Cl (centres unmarked) [1f, 1-[2-[({[3-(pentyloxy)phenyl]amino}carbonyl)oxy]-3-(dipropylammonio)propyl]-pyrrolidinium dichloride]
[1]; [7]
  MIC: < 3.9 µM
[2]; [16]
  MIC: 32 µM
[2]; [17]
  MIC: 32 µM
Guinea pig
  Ui, index of relative infiltration local anesthetic efficiency: 250
Rabbit cornea
  Us, index of relative surface local anesthetic efficiency: 130
[3]; [18]
  MIC: 16 µM
[3]; [19]
  MIC: 16 µM
[3]; [20]
  MIC: 32 µM
[4]
  surface tension γ (relative surface activity): 0.06285 N/m
[5]; [13]
  MIC: 16 µM
[5]; [14]
  MIC: 16 µM
[6]; [21]
  MIC: 15.8 µM

## CCCCCCCOc1cccc(NC(=O)OC(CN(CCC)CCC)CN2CCCC2)c1.Cl.Cl (centres unmarked) [1h, 1-[2-[({[3-(heptyloxy)phenyl]amino}carbonyl)oxy]-3-(dipropylammonio)propyl]pyrrolidinium dichloride]
[1]; [7]
  MIC: < 3.7 µM
[2]; [16]
  MIC: 8 µM
[2]; [17]
  MIC: 16 µM
[2]; Mycobacterium avium, ATCC25291, read-out: MIC MA 330/80
  MIC: 16 µM
[3]; [18]
  MIC: 8 µM
[3]; [19]
  MIC: 8 µM
[3]; [20]
  MIC: 8 µM
[3]; [22]
  MIC: 8 µM
[4]
  surface tension γ (relative surface activity): 0.05786 N/m
[5]; [13]
  MIC: 4 µM
[5]; [14]
  MIC: 8 µM
[6]; [21]
  MIC: 15 µM

## CCCCOc1cccc(NC(=O)OC(CN(CCC)CCC)CN2CCCCCC2)c1 (centres unmarked) [1m]
[1]; [7]
  MIC: 15.4 µM (≈ 6.89 µg/mL)
[2]; [8]
  MIC: 16 µM (≈ 7.16 µg/mL)
[2]; [9]
  MIC: 32 µM (≈ 14.3 µg/mL)
[3]; [10]
  MIC: 16 µM (≈ 7.16 µg/mL)
[3]; [11]
  MIC: 16 µM (≈ 7.16 µg/mL)
[3]; [12]
  MIC: 32 µM (≈ 14.3 µg/mL)
[4]
  surface tension γ (relative surface activity): 0.06298 N/m
[5]; [13]
  MIC: 8 µM (≈ 3.58 µg/mL)
[5]; [14]
  MIC: 16 µM (≈ 7.16 µg/mL)
[6]; [15]
  MIC: 30.7 µM (≈ 13.7 µg/mL)

## CCCCCCOc1cccc(NC(=O)OC(CN(CCC)CCC)CN2CCCC2)c1 (centres unmarked) [1g]
[1]; [7]
  MIC: < 3.8 µM
[2]; [8]
  MIC: 16 µM (≈ 7.16 µg/mL)
[2]; [9]
  MIC: 16 µM (≈ 7.16 µg/mL)
[2]; Mycobacterium avium, ATCC25291, cultivation time not given, read-out: MIC MA 330/80
  MIC: 16 µM (≈ 7.16 µg/mL)
[3]; [10]
  MIC: 16 µM (≈ 7.16 µg/mL)
[3]; [11]
  MIC: 16 µM (≈ 7.16 µg/mL)
[3]; [12]
  MIC: 16 µM (≈ 7.16 µg/mL)
[4]
  surface tension γ (relative surface activity): 0.06105 N/m
[5]; [13]
  MIC: 8 µM (≈ 3.58 µg/mL)
[5]; [14]
  MIC: 16 µM (≈ 7.16 µg/mL)
[6]; [15]
  MIC: 15.4 µM (≈ 6.89 µg/mL)

## CCCCCOc1cccc(NC(=O)OC(CN(CCC)CCC)CN2CCCCCC2)c1.Cl.Cl (centres unmarked) [1n, 1-[2-[({[3-(pentyloxy)phenyl]amino}carbonyl)oxy]-3-(di-propylammonio)propyl]azepanium dichloride]
[1]; [7]
  MIC: 7.5 µM
[2]; [16]
  MIC: 16 µM
[2]; [17]
  MIC: 16 µM
[3]; [18]
  MIC: 8 µM
[3]; [19]
  MIC: 8 µM
[3]; [20]
  MIC: 8 µM
[3]; [22]
  MIC: 8 µM
[4]
  surface tension γ (relative surface activity): 0.06154 N/m
[5]; [13]
  MIC: 4 µM
[5]; [14]
  MIC: 8 µM
[6]; [21]
  MIC: 15 µM

## CCCCCCCOc1cccc(NC(=O)OC(CN(CCC)CCC)CN2CCCCCC2)c1.O=C(O)C(=O)O (centres unmarked) [1l, 1-[2-[({[3-(hept-yloxy)phenyl]amino}carbonyl)oxy]-3-(dipropylammonio)propyl]azepanium oxalate]
[1]
  MIC: 96 µM
[2]; 21-day cultivation, read-out: MIC MA 330/80 21-d
  MIC: 62.5 µM
[2]; [8]
  MIC: 32 µM
[3]; 14-day cultivation, read-out: MIC MK 235/80 14-d
  MIC: 32 µM
[3]; 21-day cultivation, read-out: MIC MK 235/80 21-d
  MIC: 32 µM
[3]; [10]
  MIC: 16 µM
[4]
  surface tension γ (relative surface activity): 0.05853 N/m
[5]; [13]
  MIC: 4 µM
[5]; [14]
  MIC: 8 µM
[6]; [15]
  MIC: 382 µM
